We go through ten compounds from patent publication US7655651B2, “Amide derivatives of 3-phenyl-dihydropyrimido[4,5-d]pyrimidinones, their manufacture and use as pharmaceutical agents” (Hoffmann-La Roche Inc., priority 2004, dated 2010).

pIC50: −log10 of the molar value.

T1 sequence (P12931 whole entry): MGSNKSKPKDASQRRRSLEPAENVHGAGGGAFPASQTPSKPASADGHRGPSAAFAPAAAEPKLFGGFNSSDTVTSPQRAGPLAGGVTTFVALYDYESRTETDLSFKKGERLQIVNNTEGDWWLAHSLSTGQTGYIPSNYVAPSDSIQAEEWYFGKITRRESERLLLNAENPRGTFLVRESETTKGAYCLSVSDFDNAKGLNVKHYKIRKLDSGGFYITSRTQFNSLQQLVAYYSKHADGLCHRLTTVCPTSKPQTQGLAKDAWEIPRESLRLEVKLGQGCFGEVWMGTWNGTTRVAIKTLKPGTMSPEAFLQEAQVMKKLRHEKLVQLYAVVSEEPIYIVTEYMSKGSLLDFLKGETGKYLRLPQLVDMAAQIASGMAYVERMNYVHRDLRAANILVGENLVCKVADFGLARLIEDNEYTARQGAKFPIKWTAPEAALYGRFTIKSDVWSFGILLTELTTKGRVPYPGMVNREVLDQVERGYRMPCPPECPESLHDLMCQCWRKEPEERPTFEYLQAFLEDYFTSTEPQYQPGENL

The assay has as its target T1, Src (p60^c-src, partially purified) (Homo sapiens, UniProt P12931).
T1 construct: purchased UBI, Upstate Biotech, Inc
The assay can be described thus: SRC-Inhibitor-Assay (time-resolved fluorescence kinase assay). The class given is biochemical. As to conditions: ATP 5 μM; peptide 10 μM; enzyme 2.5 U/ml; enzyme pre-incubated with inhibitor 15 min at 15° C. On the procedure: The activity of the compounds according to this invention as inhibitors for the src-family tyrosine kinases was shown by using the following assay.
SRC-Inhibitor-Assay Parameters:
• whereby both peptides were synthesized by an optimized solid phase peptide synthesis protocol (Merrifield, Fed. Proc. Fed. Amer. Soc. Exp. Biol. 21 (1962) 412) on a Zinsser SMP350 peptide synthesizer. Shortly, the peptide was assembled on […] (22.8 μmol scale) of a Rink-Linker modified polystyrene solid phase by repeatedly conjugating an twenty fold excess of amino acids each protected by temporary piperidine labile Fmoc- and permanent acid labile tert-Bu-, BOC— and O-tert-Bu-groups depending on the side chain function. The substrate sequence AEEEIYGEFEAKKKK was N-terminal additionally mounted with the spacer amino acids Aminocaprylic acid and Glycin. After cleavage of the N-terminal temporary protecting group the still attached and protected peptide was labeled with a 1.5 fold amount of LightCycler-Red 640-N-hydroxy succinimide ester (purchased from Roche Diagnostics GmbH) and triethylamine. After 3 hrs. the resin washed with Dimethylformamide and Isopropanol until the eluates of the blue resin got colourless. […] The substrate was finally isolated by a preparative reverse phase HPLC purification. The purification yielded 12.2 mg RP-HPLC single peak pure blue material (lyophilisate). The identity was proven by MALDI mass spectroscopy [2720.0]. • Enzymes: Upstate Src (p60^c-src, partially purified) were purchased from UBI, Upstate Biotech, Inc.
Time-resolved Fluorescence Assay: Reader: Perkin Elmer, Wallac Viktor 1420-040 multilabel counter; Liquid handling system: Beckman Coulter, Biomek 2000.
ATP, Tween™ 20, 4-(2-hydroxyethyl)-1-piperazineethanesulfonic acid (HEPES) were purchased from Roche Molecular Biochemicals, MgCl2 and MnCl2 were purchased from Merck Eurolab, Tris(2-carboxyethyl)phosphine hydrochloride (TCEP) was purchased from Pierce, 384 Well low volume fluorescence plates was purchased from Falcon.
At first the enzyme is pre-incubated for 15 min. at 15° C. in aqueous solution with corresponding amounts of inhibitors according to this invention. Then the phosphorylation reaction is started by adding a reaction mixture, containing ATP, Peptide and PT66, and subsequent shaking. The proceeding of this reaction is immediately monitored using time resolved fluorescence spectroscopy in a suitable well plate reader.
The IC50-values can be obtained from the reaction rates by using a non-linear curve fit (XLfit software (ID Business Solution Ltd., Guilford, Surrey, UK))
Usually pIC50 stands for the negative decadic logarithm of the IC50, by convention in mol/L. A lower pIC50 goes with a large IC50. `CCN(CC)CCOc1ccc(Nc2ncc3c(n2)N(C)C(=O)N(c2cc(NC(=O)c4ccc(-c5ccccc5)cc4)ccc2Cl)C3)cc1` [Example 1, Biphenyl-4-carboxylic acid (4-chloro-3-{7-[4-(2-diethylamino-ethoxy)-phenylamino]-1-methyl-2-oxo-1,4-dihydro-2H-pyrimido[4,5-d]pyrimidin-3-yl}-phenyl)-amide]: the pIC50 is 7.82 to 9.00.

Regarding `CCN(CC)CCOc1ccc(Nc2ncc3c(n2)N(C)C(=O)N(c2cc(NC(=O)C4CCCCCC4)ccc2Cl)C3)cc1` [Example 2-2, Cycloheptanecarboxylic acid (4-chloro-3-{7-[4-(2-diethylamino-ethoxy)-phenylamino]-1-methyl-2-oxo-1,4-dihydro-2H-pyrimido[4,5-d]pyrimidin-3-yl}-phenyl)-amide; compound with acetic acid], the pIC50 was 7.30 to 7.82.

Turning to `CCN(CC)CCOc1ccc(Nc2ncc3c(n2)N(C)C(=O)N(c2cc(NC(=O)c4ccccc4)ccc2Cl)C3)cc1` [Example 2-6, N-(4-Chloro-3-{7-[4-(2-diethylamino-ethoxy)-phenylamino]-1-methyl-2-oxo-1,4-dihydro-2H-pyrimido[4,5-d]pyrimidin-3-yl}-phenyl)-benzamide], the negative-log IC50 (pIC50) is 8.62.

On to `CCN(CC)CCOc1ccc(Nc2ncc3c(n2)N(C)C(=O)N(c2cc(NC(=O)c4ccc(OC)cc4)ccc2Cl)C3)cc1` [Example 2-7, N-(4-Chloro-3-{7-[4-(2-diethylamino-ethoxy)-phenylamino]-1-methyl-2-oxo-1,4-dihydro-2H-pyrimido[4,5-d]pyrimidin-3-yl}-phenyl)-4-methoxy-benzamide], for which the negative logarithm of the IC50 (pIC50) was 7.82 to 9.00.

With `CCN(CC)CCOc1ccc(Nc2ncc3c(n2)N(C)C(=O)N(c2cc(NC(=O)c4ccc(C#N)cc4)ccc2Cl)C3)cc1` [Example 2-8, N-(4-Chloro-3-{7-[4-(2-diethylamino-ethoxy)-phenylamino]-1-methyl-2-oxo-1,4-dihydro-2H-pyrimido[4,5-d]pyrimidin-3-yl}-phenyl)-4-cyano-benzamide], the negative-log IC50 (pIC50) was 9.00.

`CCN(CC)CCOc1ccc(Nc2ncc3c(n2)N(C)C(=O)N(c2cc(NC(=O)CCc4ccc(O)cc4)ccc2Cl)C3)cc1` [Example 2-12, N-(4-Chloro-3-{7-[4-(2-diethylamino-ethoxy)-phenylamino]-1-methyl-2-oxo-1,4-dihydro-2H-pyrimido[4,5-d]pyrimidin-3-yl}-phenyl)-3-(4-hydroxy-phenyl)-propionamide; compound with acetic acid] showed a pIC50 of 7.82 to 9.00.

Compound `CCN(CC)CCOc1ccc(Nc2ncc3c(n2)N(C)C(=O)N(c2cc(NC(=O)CCCc4ccccc4)ccc2Cl)C3)cc1` [Example 2-15, N-(4-Chloro-3-{7-[4-(2-diethylamino-ethoxy)-phenylamino]-1-methyl-2-oxo-1,4-dihydro-2H-pyrimido[4,5-d]pyrimidin-3-yl}-phenyl)-4-phenyl-butyramide] showed a negative-log IC50 (pIC50) of 7.30 to 7.82.

For the compound `CCN(CC)CCOc1ccc(Nc2ncc3c(n2)N(C)C(=O)N(c2cc(NC(=O)C=Cc4ccccc4)ccc2Cl)C3)cc1` [Example 2-16, N-(4-Chloro-3-{7-[4-(2-diethylamino-ethoxy)-phenylamino]-1-methyl-2-oxo-1,4-dihydro-2H-pyrimido[4,5-d]pyrimidin-3-yl}-phenyl)-3-phenyl-acrylamide], the negative-log IC50 (pIC50) was 7.82 to 9.00.

Compound `CCN(CC)CCOc1ccc(Nc2ncc3c(n2)N(C)C(=O)N(c2cc(NC(=O)Cc4cccnc4)ccc2Cl)C3)cc1` [Example 2-21, N-(4-Chloro-3-{7-[4-(2-diethylamino-ethoxy)-phenylamino]-1-methyl-2-oxo-1,4-dihydro-2H-pyrimido[4,5-d]pyrimidin-3-yl}-phenyl)-2-pyridin-3-yl-acetamide] had a negative logarithm of the IC50 (pIC50) of 7.30 to 7.82.

`CCN(CC)CCOc1ccc(Nc2ncc3c(n2)N(C)C(=O)N(c2cc(NC(=O)CCc4cccnc4)ccc2Cl)C3)cc1` [Example 2-23, N-(4-Chloro-3-{7-[4-(2-diethylamino-ethoxy)-phenylamino]-1-methyl-2-oxo-1,4-dihydro-2H-pyrimido[4,5-d]pyrimidin-3-yl}-phenyl)-3-pyridin-3-yl-propionamide; compound with acetic acid] had a pIC50 of 7.82 to 9.00.
